From patent US20260125375A1 (Pfizer Inc., priority 2022, published 2026)
Where two headings read alike, the source gives them in different places.

Assays:
CBL-B (residues 36-427) = target: T1, CBL-B (residues 36-427) (Homo sapiens, UniProt Q13191); assay: Ligand Displacement Assay (LDA), HTRF competitive binding against BODIPY-labeled fluorescent tracer, CBL-B; details: geometric mean of the number of tests, read-out: CBL-B Ki (nM) GMean
T1 construct: Purified CBL-B (residues 36-427) and C-CBL (residues 46-435) proteins from baculovirus-infected insect cells; made in house; host or cells: baculovirus-infected insect cells
Summary of the method: (§1)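 Insect-cell (baculovirus) protein, N-term AviTag biotinylated via BirA, captured by SA-Tb; BODIPY tracer, KD measured per protein. 3-fold serial dilutions, duplicate, […], 2% DMSO final. Ki (nM) = geomean of runs.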

C-CBL = target: T2, C-CBL (Homo sapiens, UniProt P22681); assay: Jurkat HiBit-IL2 assay (CBL-B KO), reporter cell line expressing C-CBL only; type: cell-based; details: geometric mean, read-out: CBL-B KO EC50 (nM) GMean
T2 construct: endogenous in cells; host or cells: Jurkat HiBit-IL2 reporter cells, CBL-B knocked out by CRISPR
Description: (§2) Jurkat HiBit-IL2 Assay (WT, c-CBL KO, CBL-B KO)
(§3) The purpose of the Jurkat HiBit-IL2 assay is to evaluate the effect of the inhibition of CBL-B and/or C-CBL on TCR/CD28 stimulated interleukin-2 (IL-2) secretion.
(§4) The expression of IL-2 can then be accurately measured by HiBit luciferase assay. Further, C-CBL or CBL-B was knocked out by CRISPR respectively in this Jurkat HiBit-IL2 reporter cell line to create reporter cell line expressing CBL-B only (c-CBL knockout (KO)) or C-CBL only (CBL-B KO).
(§5) All three reporter cell lines were maintained in RPMI-1640 media with GlutaMax, 10% fetal bovine serum, 100 units/ml of penicillin, and 100 μg/ml of streptomycin at 37° C., 5% CO2, at a cell density 1×10e5-2×10e6 viable cells/ml. Serial diluted compounds in DMSO (40 nl/well, final 0.1% DMSO in assay cell culture) were plated into 384-well white-wall clear-bottom cell culture plates. Reporter cells were pelleted and resuspended in fresh cell culture medium to 0.66×10e6 cells/ml and added to the assay plate at 30 μl/well (20,000 cells/well). The cells were incubated with compounds for 1 hour at 37° C., 5% CO2. 10 μl/well of anti-CD3 antibody (OKT3) and anti-CD28 antibody (CD28.2) prediluted in fresh cell culture medium at 4× final concentration (anti-CD3 mAb: 4 μg/ml; anti-CD28 mAb: 8 μg/ml) was added into the cells (final concentration of anti-CD3 mAb: 1 μg/ml; anti-CD28 mAb: 2 μg/ml). The cells were cultured for another 4 hours at 37° C., 5% CO2. The Nano-Glo HiBiT Lytic Reagent was prepared following the manufacturer's protocol. 20 ul/well of the Nano-Glo HiBiT Lytic Reagent was added into the reporter cell culture assay plate and incubated at room temperature (20-25° C.) for 15 minutes. The plates were read on a Perkin-Elmer EnVision plate reader with 0.1 second integration time. Data were normalized to “Fold of Effect” with the anti-CD3 and anti-CD28 antibodies only samples as the baseline activation level and EC50 was calculated. The EC50 (nM) values reported are the geometric means (GMean) of the number of tests conducted.

C-CBL (residues 46-435) = target: T3, C-CBL (residues 46-435) (Homo sapiens, UniProt P22681); assay: Ligand Displacement Assay (LDA), HTRF competitive binding against BODIPY-labeled fluorescent tracer, C-CBL; details: geometric mean of the number of tests, read-out: C-CBL Ki (nM) GMean
T3 construct: Purified CBL-B (residues 36-427) and C-CBL (residues 46-435) proteins from baculovirus-infected insect cells; made in house; host or cells: baculovirus-infected insect cells
T3 sequence (P22681 46-435): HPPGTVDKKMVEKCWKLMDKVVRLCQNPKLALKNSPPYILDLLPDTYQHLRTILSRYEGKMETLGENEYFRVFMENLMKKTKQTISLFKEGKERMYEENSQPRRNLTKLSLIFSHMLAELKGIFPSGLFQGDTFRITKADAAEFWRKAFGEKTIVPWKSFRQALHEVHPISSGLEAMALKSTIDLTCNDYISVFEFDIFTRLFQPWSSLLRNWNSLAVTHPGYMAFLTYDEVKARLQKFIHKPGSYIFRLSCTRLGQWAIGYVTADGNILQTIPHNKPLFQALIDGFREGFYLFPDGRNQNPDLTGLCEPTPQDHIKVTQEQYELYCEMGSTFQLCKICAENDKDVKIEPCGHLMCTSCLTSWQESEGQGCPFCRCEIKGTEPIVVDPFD
Summary of the method: as §1

CBL-B = target: T4, CBL-B (Homo sapiens, UniProt Q13191); assay: Jurkat HiBit-IL2 assay (c-CBL KO), reporter cell line expressing CBL-B only; type: cell-based; details: geometric mean, read-out: C-CBL KO EC50 (nM) GMean
T4 construct: endogenous in cells; host or cells: Jurkat HiBit-IL2 reporter cells, C-CBL knocked out by CRISPR
Description: as §2, §3, §4, §5

[1] = CBL-B KO (C-CBL only), anti-CD3/anti-CD28 stimulation 4 hours, Table 16a
[2] = CBL-B KO (expressing C-CBL only), Table 16b (further repetition)
[3] = C-CBL KO (expressing CBL-B only), Table 16b (further repetition)
[4] = c-CBL KO (CBL-B only), anti-CD3/anti-CD28 stimulation 4 hours, Table 16a

CC(NCCO)c1nc(C(F)(F)F)cc2c(-c3cccc([C@H](c4nncn4C)C4CCCCC4)c3)n[nH]c12 (single isomer, unassigned) [Example C40]
Ki (CBL-B (residues 36-427)): 7.1 nM
EC50 (C-CBL; [1]): 1360 nM
EC50 (C-CBL; [2]): 1560 nM
Ki (C-CBL (residues 46-435)): 95.9 nM
EC50 (CBL-B; [3]): 214 nM
EC50 (CBL-B; [4]): 47 nM

CC(NCCO)c1nc(C(F)(F)F)cc2c(-c3cccc([C@H](c4nncn4C)C4CCC4)c3)n[nH]c12 (single isomer, unassigned) [Example C41]
Ki (CBL-B (residues 36-427)): 3.2 nM
EC50 (C-CBL; [1]): 327 nM
EC50 (C-CBL; [2]): 877 nM
Ki (C-CBL (residues 46-435)): 30.1 nM
EC50 (CBL-B; [3]): 154 nM
EC50 (CBL-B; [4]): 42 nM

CC(NCCO)c1nc(C(F)(F)F)cc2c(-c3cccc([C@H](c4nncn4C)C4CCC4)c3)n[nH]c12 (single isomer, unassigned) [Example C42]
Ki (CBL-B (residues 36-427)): 2.5 nM
EC50 (C-CBL; [1]): 316 nM
EC50 (C-CBL; [2]): 635 nM
Ki (C-CBL (residues 46-435)): 28.2 nM
EC50 (CBL-B; [3]): 94 nM
EC50 (CBL-B; [4]): 29 nM

C[C@H](CO)N[C@@H](C)c1nc(C(F)(F)F)cc2c(-c3cccc([C@H](c4nncn4C)C4CCC4)c3)n[nH]c12 (single isomer, unassigned) [Example C43]
Ki (CBL-B (residues 36-427)): 6.7 nM
EC50 (C-CBL; [1]): 912 nM
EC50 (C-CBL; [2]): 554 nM
Ki (C-CBL (residues 46-435)): 87.7 nM
EC50 (CBL-B; [3]): 61 nM
EC50 (CBL-B; [4]): 51 nM

C[C@H](CO)N[C@H](C)c1nc(C(F)(F)F)cc2c(-c3cccc([C@H](c4nncn4C)C4CCC4)c3)n[nH]c12 (single isomer, unassigned) [Example C44]
Ki (CBL-B (residues 36-427)): 2.2 nM
EC50 (C-CBL; [1]): 253 nM
EC50 (C-CBL; [2]): 356 nM
Ki (C-CBL (residues 46-435)): 25 nM
EC50 (CBL-B; [3]): 60 nM
EC50 (CBL-B; [4]): 21 nM

CC(NCC(C)(C)O)c1nc(C(F)(F)F)cc2c(-c3cccc([C@H](c4nncn4C)C4CCC4)c3)n[nH]c12 (single isomer, unassigned) [Example C45]
Ki (CBL-B (residues 36-427)): 2.5 nM
EC50 (C-CBL; [1]): 102 nM
EC50 (C-CBL; [2]): 115 nM
Ki (C-CBL (residues 46-435)): 22.1 nM
EC50 (CBL-B; [3]): 30 nM
EC50 (CBL-B; [4]): 14 nM

C[C@@H](N[C@H]1CCC[C@@H]1O)c1nc(C(F)(F)F)cc2c(-c3cccc([C@H](c4nncn4C)C4CCC4)c3)n[nH]c12 (single isomer, unassigned) [Example C46]
Ki (CBL-B (residues 36-427)): 9.4 nM
EC50 (C-CBL; [1]): 392 nM
EC50 (C-CBL; [2]): 330 nM
Ki (C-CBL (residues 46-435)): 67.8 nM
EC50 (CBL-B; [3]): 61 nM
EC50 (CBL-B; [4]): 36 nM

CC(N[C@H](C)[C@H](C)O)c1nc(C(F)(F)F)cc2c(-c3cccc([C@H](c4nncn4C)C4CCC4)c3)n[nH]c12 (single isomer, unassigned) [Example C48]
Ki (CBL-B (residues 36-427)): 2.5 nM
EC50 (C-CBL; [1]): 493 nM
EC50 (C-CBL; [2]): 466 nM
Ki (C-CBL (residues 46-435)): 33 nM
EC50 (CBL-B; [3]): 67 nM
EC50 (CBL-B; [4]): 20 nM

CC(NC[C@H](C)O)c1nc(C(F)(F)F)cc2c(-c3cccc([C@H](c4nncn4C)C4CCCCC4)c3)n[nH]c12 (single isomer, unassigned) [Example C99]
Ki (CBL-B (residues 36-427)): 3.1 nM
EC50 (C-CBL; [2]): 323 nM
Ki (C-CBL (residues 46-435)): 13.8 nM
EC50 (CBL-B; [3]): 44 nM

CC(NC[C@H](C)O)c1nc(C(F)(F)F)cc2c(-c3cccc([C@H](c4nncn4C)C4CCCCC4)c3)n[nH]c12 (single isomer, unassigned) [Example C100]
Ki (CBL-B (residues 36-427)): 2.8 nM
EC50 (C-CBL; [2]): 1410 nM
Ki (C-CBL (residues 46-435)): 40.4 nM
EC50 (CBL-B; [3]): 110 nM

CC(N[C@H]1CCC[C@@H]1O)c1nc(C(F)(F)F)cc2c(-c3cccc([C@H](c4nncn4C)C4CCCCC4)c3)n[nH]c12 (single isomer, unassigned) [Example C101]
Ki (CBL-B (residues 36-427)): 2.5 nM
EC50 (C-CBL; [2]): 909 nM
Ki (C-CBL (residues 46-435)): 21 nM
EC50 (CBL-B; [3]): 58 nM

CC(NCC(C)(C)O)c1nc(C(F)(F)F)cc2c(-c3cccc([C@H](c4nncn4C)C4CCC4)c3)n[nH]c12 (single isomer, unassigned) [Example C117]
Ki (CBL-B (residues 36-427)): 7.9 nM
EC50 (C-CBL; [2]): 794 nM
Ki (C-CBL (residues 46-435)): 83.6 nM
EC50 (CBL-B; [3]): 170 nM
